{
  "source": "patent US12559863B2",
  "about": "“Macrocyclic modulators of disease associated protein misfolding and aggregation” (RESQ BIOTECH, priority 2017, dated 2026)",
  "key": {"[1]": {"target": "T1, Aβ42-GFP (Homo sapiens, UniProt P05067)", "T1 construct": "a chimeric fusion of the human Aβ(1-42) peptide (Aβ42) with GFP; expressed in transfected cells; host or cells: E. coli BL21(DE3)", "assay": "High-throughput sequencing of pSICLOPPS vectors isolated after bacterial sorting for enhanced Aβ42-GFP fluorescence", "procedure,_shortened": "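Peptide inserts recovered from repeatedly sorted high-GFP clones were sequenced on Ion Torrent, excluding stop-codon-containing reads. Sorting used BL21(DE3) cells carrying pETAβ42-GFP plus the tetra-, penta- and hexapeptide pSICLOPPS library. Peptide production was induced with 0.002% L-arabinose and the reporter with 0.1 mM IPTG at OD600 ~0.5, at 37° C.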"}, "[2]": {"target": "T2, SOD1(A4V) (Homo sapiens, UniProt P00441, A5V)", "T2 construct": "polyHis; made in house; host or cells: E. coli Origami 2(DE3)", "T2 sequence (P00441 whole entry A5V)": "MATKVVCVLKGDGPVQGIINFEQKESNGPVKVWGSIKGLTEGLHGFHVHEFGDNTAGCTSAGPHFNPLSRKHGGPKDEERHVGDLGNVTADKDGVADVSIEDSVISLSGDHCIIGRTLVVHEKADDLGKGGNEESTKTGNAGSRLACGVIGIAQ", "assay": "Thioflavin T staining of SOD1(A4V)", "format": "biochemical", "details": "90 d at 25° C.", "method": "SOD1 or mutants thereof were overexpressed from the appropriate pET-SOD1 or PASK-SOD1 vectors in E. coli Origami 2(DE3) cells in LB medium containing 50 μg/mL kanamycin (for pET-SOD1) or 100 μg/mL ampicillin (for pASK-SOD1), 200 μM CuCl2, and 200 μM ZnCl2 by the addition of 0.01 mM IPTG (for pET-SOD1) or 0.2 μg/mL anhydrotetracycline (aTc) (for pASK-SOD1), either at 37° C. for 2-3 h or at 18° C. for about 16 h. Origami 2(DE3) cells were utilized in order to provide an oxidizing cytoplasmic environment in order to promote correct formation of disulfide bonds, which are required for proper SOD1 folding and function. Under these conditions, bacterially produced SOD1 is produced in dimeric and enzymatically active form, while it simultaneously co-exists with misfolded, soluble and insoluble SOD1 oligomeric/aggregated species (FIG. 3C). Thus, the acquired protein is found in a state that resembles the conditions encountered in human cells under stressful or pathogenic conditions. […]\n40 μM SOD1(A4V) solutions, aged for 90 d at 25° C., with or without the selected synthetic peptides, were diluted to 10 μM with PBS. […] The mixture was agitated adequately by pipetting and immediately thereafter, fluorescence was monitored with excitation at 440 nm (EM slit=2.5 nm, PMT Voltage 700 V, response 0.4 s) using a HITACHI F-2500 (Japan) spectrofluorometer."}, "[3]": {"target": "T3, Aβ42 (Homo sapiens, UniProt P05067)", "T3 construct": "one of the secondary products yields a 42-amino-acid-long peptide (Aβ42); purchased Eurogentec, Belgium; host or cells: chemical synthesis", "assay": "Thioflavin T dye-binding assay of Aβ42", "format": "biochemical", "details": "30-d aged CD solutions", "method": "For Aβ ThT staining, 100 μL of the 30-d aged 50 μM CD solutions were diluted in PBS (10 mM, pH 7.33) to form a 25 μM Aβ solution with 200 μL final volume. 2.5 μL from a stock solution of ThT (Sigma-Aldrich, USA) in PBS (10 mM, pH 7.33) was added to the prepared Aβ solutions to achieve a final ThT concentration of 5 μM. The mixture was agitated adequately by pipetting and immediately thereafter, fluorescence was monitored with excitation at 440 nm (EM slit=2.5 nm, PMT Voltage 700 V, response 0.4 s) using a HITACHI F-2500 (Japan) spectrofluorometer."}},
  "note": "Where a SMILES comes first, the peptide text is derived from it.",
  "data": [
    {"molecule": "C[C@@H]1NC(=O)[C@H](CO)NC(=O)[C@H]([C@@H](C)O)NC(=O)[C@@H]2CCCN2C(=O)[C@H](CO)NC1=O", "note": "[AβC5-34, cyclo-SASPT] (cyclo(ASPTS))", "values": [
      {"measurement": "Reads/Total SASPT-like reads (%)", "setting": "[1]; Table 2", "value": 97.349, "unit": "%"},
      {"measurement": "Reads/Total pentapeptide reads (%)", "setting": "[1]; Table 2", "value": 0.632, "unit": "%"},
      {"measurement": "Reads/Total peptide reads (%)", "setting": "[1]; Table 2", "value": 0.567, "unit": "%"},
      {"measurement": "Number of reads", "setting": "[1]; Table 2, after second round of sorting", "value": 25673}
    ]},
    {"molecule": "cyclo-TWSVW (cyclic) [SOD1C5-4]", "values": [
      {"measurement": "formation of large, amyloid-like SOD1(A4V) aggregates by ThT staining", "setting": "[2]", "value": "dramatically decreased"},
      {"measurement": "extent of Aβ42 amyloid fibril formation (ThT)", "setting": "[3]", "value": "did not have any effect"}
    ]},
    {"molecule": "C[C@@H]1NC(=O)[C@H]([C@@H](C)O)NC(=O)[C@H](CCCNC(=N)N)NC(=O)[C@H](CC(=O)O)NC(=O)[C@H](Cc2ccccc2)NC1=O", "note": "[AβC5-116, cyclo-TAFDR] (cyclo(AFDRT))", "values": [
      {"measurement": "Reads/Total TXXXR reads (%)", "setting": "[1]; after the second round of bacterial sorting, relative to total TXXXR reads", "value": 0.223, "unit": "%"},
      {"measurement": "Reads/Total pentapeptide reads (%)", "setting": "[1]; after the second round of bacterial sorting, relative to total pentapeptide reads", "value": 0.105, "unit": "%"},
      {"measurement": "Reads/Total peptide reads (%)", "setting": "[1]; after the second round of bacterial sorting, relative to total peptide reads", "value": 0.094, "unit": "%"},
      {"measurement": "Number of reads", "setting": "[1]; high-throughput sequencing of isolated pSICLOPPS-NuX1X2X3-X5 vectors after the second round of bacterial sorting for enhanced Aβ42-GFP fluorescence, selected cyclo-TXXXR pentapeptides", "value": "4,243"}
    ]}
  ]
}
